Each structure is given as a SMILES string.

One test has as its target T1, P13K (p110b/p85a) (Homo sapiens, UniProt P42338).
T1 construct: purchased Signal Chem (Richmond, BC, Canada)
The test is described as follows: In-vitro kinase profiling, radioisotope screening assay (Signal Chem). The following applies: 5 μM compound, 50 μM ATP, vs vehicle control; negative = inhibition. Type of test: biochemical. The protocol:
(§1) Kinase profiling of PK analogs. The inhibitory effect of lead PK analogs were tested against a panel of 15 protein kinase targets (TABLE 1) to develop better lead candidates without “off” target effects. The selectivity assay was performed at Signal Chem™ (Richmond, BC, Canada) by profiling against protein kinase targets using the “Gold Standard” radioisotope screening assay format. This assay format gave the highest signal noise ratio and allowed the direct measurement of catalytic activity of a protein kinase.
(§2) All assays were performed in triplicate in a 96-well assay format and the % error between triplicates is <10%. Protein kinase assays was performed in the presence of 50 μM ATP at 30° C. for 15 min. The activity of the enzymes in the presence of 5 μM PK analogs was compared to that in the vehicle control and expressed as a percent change in activity relative to that observed in the vehicle control. In TABLE 1, the results are expressed as percent activity change compared to control. The intra-assay variability was determined to be less than 10%. Inhibition of target activity by the compound is shown by a negative value, while activation of target activity is shown by positive value, with values >10% considered to be highly significant.

For another test, the target named is T2, PKAα (Homo sapiens, UniProt P17612).
T2 construct: purchased Signal Chem (Richmond, BC, Canada)
The test is described as above. Type of test: biochemical. The following applies: 5 μM compound, 50 μM ATP, vs vehicle control; negative = inhibition. How it is done:
as §1, §2

For the next test, the target named is T3, PKCε (Homo sapiens, UniProt Q02156).
T3 construct: purchased Signal Chem (Richmond, BC, Canada)
T3 sequence (Q02156 1-737): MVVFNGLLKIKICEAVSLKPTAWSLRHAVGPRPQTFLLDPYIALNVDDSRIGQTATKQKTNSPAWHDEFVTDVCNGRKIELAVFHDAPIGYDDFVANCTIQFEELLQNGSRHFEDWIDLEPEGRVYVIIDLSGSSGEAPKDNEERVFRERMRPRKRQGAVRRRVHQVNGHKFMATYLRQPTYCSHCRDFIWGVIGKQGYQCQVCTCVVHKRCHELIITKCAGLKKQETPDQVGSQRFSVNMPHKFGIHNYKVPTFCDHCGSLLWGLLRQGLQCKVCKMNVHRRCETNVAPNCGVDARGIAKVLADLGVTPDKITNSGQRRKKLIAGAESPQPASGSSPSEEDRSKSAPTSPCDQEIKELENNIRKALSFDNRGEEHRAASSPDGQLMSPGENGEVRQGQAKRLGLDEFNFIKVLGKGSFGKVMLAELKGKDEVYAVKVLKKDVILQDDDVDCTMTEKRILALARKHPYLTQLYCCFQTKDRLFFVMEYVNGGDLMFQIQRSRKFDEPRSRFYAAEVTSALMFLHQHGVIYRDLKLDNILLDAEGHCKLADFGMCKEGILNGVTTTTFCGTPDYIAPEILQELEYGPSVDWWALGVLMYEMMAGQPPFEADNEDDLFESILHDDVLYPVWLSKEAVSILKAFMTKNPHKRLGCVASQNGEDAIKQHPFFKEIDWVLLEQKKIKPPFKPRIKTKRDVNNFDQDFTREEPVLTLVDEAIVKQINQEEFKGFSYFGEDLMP
The description is as above. The test is classed as biochemical. The following applies: for % activity change: 5 μM compound, 50 μM ATP, vs vehicle control, negative = inhibition. The protocol: as §1, §2

Test [1] concerns caspase-3 activity in N27 cells. Kind of test: MPP+-induced caspase-3 activity assay in N27 cells. The test is classed as cell-based, rat. The following applies: for relative protection against MPP+-induced caspase-3 activity within the generation / blockage of MPP+-induced caspase-3 activity: 300 μM MPP+ 24 hr; for relative protection against MPP+-induced caspase-3 activity within the generation: 0.3-10 μM; for blockage of MPP+-induced caspase-3 activity: co-treated with 0.3, 1, 3 and 10 μM. The protocol: To determine whether PK analogs are neuroprotective against MPP+-induced increases in caspase-3 and DNA fragmentation, their effects on MPP+-induced increases in caspase-3 activity and DNA fragmentation, markers of apoptotic cell death, were examined.
The second generation PK analogs were further tested to determine whether the analogs are neuroprotective against MPP+-induced apoptotic cell death. The effects on MPP+-induced increases in caspase-3 enzymatic activity were analyzed, a marker of apoptotic cell death. […] At the end of the treatment, cytotoxicity was measured using the caspase-3 assay in a 96-well fluorescence microplate reader.
The third generation PK analogs were further tested to determine whether the analogs are neuroprotective against MPP+-induced apoptotic cell death. The effects on MPP+-induced increases in caspase-3 enzymatic activity were examined, a marker of apoptotic cell death. N27 cells were exposed to 300 μM MPP+ for 24 hr in the presence or absence of three different PK compounds in the dose range of 0.3-10 μM. At the end of the treatment, cytotoxicity was measured using the caspase-3 assay in a 96-well fluorescence microplate reader.
Rat mesencephalic dopaminergic clonal cells (N27) were used and maintained in RPMI 1640 complete medium supplemented with 10% Fetal Bovine Serum, 1% […] and 1% Penicillin/Streptomycin in a 37° C. incubator with 5% CO2. After 4-6 days in culture, the cells were used for the experiments.
N27 cells were exposed to MPP^+ for 24 hr in the presence or absence of PK analogs in the dose range of 1-30 μM.

Another test concerns C57 black mice. Kind of test: Acute MPTP mouse model of PD, striatal dopamine and DOPAC. Type of test: in vivo. The conditions noted are these: MPTP 4 x 18 mg/kg i.p.; 10 mg/kg oral gavage, 7 days. How it is done:
Lead PK analogs protect against behavioral deficits and neurochemical loss in a preclinical MPTP-induced mouse model of PD. After characterizing the neuroprotective effect of PK analogs in cell culture models of PD, as a proof of principle, preliminary evaluation of two lead PK analogs in an acute MPTP animal model of PD were conducted. C57 black mice received 4 doses of MPTP at 18 mg/kg i.p at 2 hr interval. Oral administration of lead PK analogs (10 mg/kg body wt, oral gavage) was started 1 day before MPTP insult and continued for 7 days. 1% DMSO was used as the vehicle control. Locomotor activity was measured using the VersaMax Analyzer 1-2 days before sacrificing the mice. Mice were sacrificed after 7 days of MPTP injection. (n=5). (**p<0.01: PK analogs versus MPTP).

T1 sequence (P42338 whole entry, stated change not applied): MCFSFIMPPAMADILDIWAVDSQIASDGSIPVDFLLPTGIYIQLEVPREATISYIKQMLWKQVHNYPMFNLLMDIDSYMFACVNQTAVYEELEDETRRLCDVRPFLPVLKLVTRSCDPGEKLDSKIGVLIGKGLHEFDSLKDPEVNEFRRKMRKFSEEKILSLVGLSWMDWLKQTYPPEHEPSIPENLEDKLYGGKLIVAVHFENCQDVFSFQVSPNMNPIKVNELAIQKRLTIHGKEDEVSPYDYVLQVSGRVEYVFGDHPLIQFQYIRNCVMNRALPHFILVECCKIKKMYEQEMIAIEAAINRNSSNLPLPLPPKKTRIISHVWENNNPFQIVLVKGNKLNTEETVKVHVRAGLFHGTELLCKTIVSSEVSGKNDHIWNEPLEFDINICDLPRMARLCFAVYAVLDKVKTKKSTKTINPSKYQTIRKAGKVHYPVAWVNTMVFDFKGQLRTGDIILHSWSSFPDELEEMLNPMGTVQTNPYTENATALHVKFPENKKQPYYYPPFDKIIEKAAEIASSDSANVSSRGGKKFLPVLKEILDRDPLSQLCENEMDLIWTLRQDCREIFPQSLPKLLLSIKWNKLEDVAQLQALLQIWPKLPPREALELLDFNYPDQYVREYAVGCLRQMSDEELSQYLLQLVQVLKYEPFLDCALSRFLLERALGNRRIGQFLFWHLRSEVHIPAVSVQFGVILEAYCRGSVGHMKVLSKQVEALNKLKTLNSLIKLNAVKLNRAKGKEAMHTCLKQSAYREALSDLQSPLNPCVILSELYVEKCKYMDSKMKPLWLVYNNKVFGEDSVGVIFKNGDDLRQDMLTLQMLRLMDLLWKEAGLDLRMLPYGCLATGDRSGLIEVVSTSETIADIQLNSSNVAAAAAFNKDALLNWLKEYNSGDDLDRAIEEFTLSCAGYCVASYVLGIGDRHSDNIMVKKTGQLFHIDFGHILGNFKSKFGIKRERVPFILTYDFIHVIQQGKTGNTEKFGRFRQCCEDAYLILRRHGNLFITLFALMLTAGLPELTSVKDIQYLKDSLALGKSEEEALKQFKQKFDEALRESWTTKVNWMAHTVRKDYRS
T1 sequence (P27986 2-724 partner): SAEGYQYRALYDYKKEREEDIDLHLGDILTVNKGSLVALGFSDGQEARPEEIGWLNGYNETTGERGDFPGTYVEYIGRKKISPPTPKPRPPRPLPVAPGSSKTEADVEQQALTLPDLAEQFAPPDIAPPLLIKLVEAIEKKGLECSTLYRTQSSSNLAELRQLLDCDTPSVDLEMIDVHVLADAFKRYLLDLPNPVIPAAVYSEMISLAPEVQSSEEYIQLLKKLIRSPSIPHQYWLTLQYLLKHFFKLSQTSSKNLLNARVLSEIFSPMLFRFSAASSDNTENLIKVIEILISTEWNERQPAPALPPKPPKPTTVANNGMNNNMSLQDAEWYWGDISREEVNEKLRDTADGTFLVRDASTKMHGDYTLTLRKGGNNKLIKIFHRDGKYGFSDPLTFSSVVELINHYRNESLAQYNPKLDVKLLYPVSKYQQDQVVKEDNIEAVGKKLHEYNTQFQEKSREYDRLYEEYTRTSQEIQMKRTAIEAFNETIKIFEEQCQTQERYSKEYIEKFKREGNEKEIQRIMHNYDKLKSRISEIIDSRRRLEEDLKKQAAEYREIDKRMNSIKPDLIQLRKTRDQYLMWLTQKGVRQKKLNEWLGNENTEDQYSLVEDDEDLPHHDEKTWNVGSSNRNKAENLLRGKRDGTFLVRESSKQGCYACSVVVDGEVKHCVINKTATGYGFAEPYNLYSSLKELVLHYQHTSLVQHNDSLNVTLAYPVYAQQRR

With `Oc1cc(O)c(Cc2c(O)cc(O)cc2O)c(O)c1` [PK103], the “% activity change” value at P13K (p110b/p85a) is −6%; on PKAα, 3%; on PKCε, 5%. Also, the “blockage of MPP+-induced increases in caspase-3 activation” value in test [1] (co-treated with 3 μM) is recorded as “significant blockage”. For the same molecule, the “striatal DOPAC depletion” value in the test with C57 black mice is “attenuated”. The striatal dopamine depletion entry in the test with C57 black mice is given as “attenuated”.
In the case of `CC(=O)c1c(O)c(C)c(O)c(Cc2c(O)c3c(c4c2OC(c2ccccc2)CC4=O)OC(C)(C)C=C3)c1O` (stereo not drawn) [PK202], the “% activity change” value at P13K (p110b/p85a) is reported as −2%. The “% activity change” value at PKAα was 10%. Further, the “% activity change” value at PKCε was −3%. Besides, in test [1], the “relative protection against MPP+-induced caspase-3 activity within the generation” value is given as “more effectively protects” and the “blockage of MPP+-induced caspase-3 activity” value is listed as “dose-dependent blockage”. Further, in the test on C57 black mice, the “striatal DOPAC depletion” value is reported as “attenuated” and the striatal dopamine depletion entry is “attenuated”.
With `CC1(C)C=Cc2c(O)cc(O)c(C(=O)/C=C/c3ccccc3)c2O1` [PK302], the “% activity change” value on P13K (p110b/p85a) is listed as −8%; at PKAα it was 1%; on PKCε, 6%. Besides, in test [1], the “relative protection against MPP+-induced caspase-3 activity within the generation” value was “more effectively protect”. Moreover, the “blockage of MPP+-induced caspase-3 activity” value in test [1] is given as “significant blockage”. Moreover, the “striatal DOPAC depletion” value in the test with C57 black mice was “attenuated”. The striatal dopamine depletion result with C57 black mice was “attenuated”.
For the molecule `CC(=O)c1c(O)c(C)c(O)c(Cc2c(O)c3c(c(C(=O)/C=C/c4ccccc4)c2O)OC(C)(C)C=C3)c1O` [Rottlerin, (E)-1-[6-[(3-acetyl-2,4,6-trihydroxy-5-methylphenyl)methyl]-5,7-dihydroxy-2,2-dimethylchromen-8-yl]-3-phenylprop-2-en-1-one], the “% activity change” value at P13K (p110b/p85a) is reported as −10%; on PKAα it was 1%; on PKCε, −25%. For the same molecule, the inhibition at 5 µM at PKCε (5 μM concentration, given as positive inhibition, read-out: inhibited by % compared to control) amounted to 25%.
